According to US20220062294A1, “PHARMACEUTICAL COMPOSITIONS OF TETRACYCLIC QUINOLONE ANALOGS AND THEIR SALTS” (Senhwa Biosciences, Inc., priority 2020, published 2022):

Key:
[1] = test system: multiple cancer cell lines; test: Alamar Blue cell viability assay, overall statement on cancer cell lines; format: cell-based
Protocol: The effect of Compound I on cell viability was assessed by Alamar Blue assay of metabolic activity in various cancer cell lines.

[2] = test system: normal cells; test: Alamar Blue cell viability assay, overall statement on normal cells; format: cell-based
[3] = test system: BRCA1/2 deficient cells; test: Toxicity against BRCA1/2 deficient cell lines; format: cell-based; conditions: cell lines of different genetic backgrounds (colon, breast and ovary), mouse and human
[4] = test system: BRCA2 knockout tumor cells; test: Xenograft model, BRCA2 knockout vs isogenic wild type tumor cells; format: in vivo; conditions: BRCA2 knockout tumor cells in a xenograft model, compared with isogenic wild type control cells
[5] = test system: metastatic, recurrent, locally, advanced, or unresectable solid malignancy; test: Pharmacokinetic and dose escalation study in patients with solid malignancy (Example 6); format: in vivo, human
Protocol: In pharmacokinetic and dose escalation studies, wadult patients with metastatic, recurrent, locally, advanced, or unresectable solid malignancy (patients with histologically and/or cytologically confirmed solid malignancy), who received prior anti-cancer treatment(s) until disease progression, at 10 different dose levels of Compound I were evaluated. Groups 1-7 were administered Compound I intravenously on days 1 and 8 of a 4-week cycle at 50, 100, 150, 200, 250, 325, and 475 mg/m^2 (solid Compound I reconstituted with 5% glucose in sterile water or similar biologically acceptable IV fluid), respectively. Groups 8-10 were administered intravenously on days 1, 8, and 15 of a 4-week cycle at 325, 475, and 650 mg/m^2, respectively. Each patient received each dose over 1 hour by IV infusion on days described above.
18 Patients were diagnosed with metastatic breast cancer.
12 Patients harbored BRCA1 or BRCA2 mutation. From the same group of 12 patients harboring BRCA1 or BRCA2 mutation, 8 patients had breast cancer (FIG. 2). Of the 8 patients, 6 patients harbored BRCA2 mutation and had breast cancer (FIG. 3). In FIGS. 1-3, each bar represents an individual in a treatment Group as indicated by the Group number corresponding to the treatment Groups.

## Cc1cnc(CNC(=O)c2c(=O)c3ccc(N4CCCN(C)CC4)nc3n3c2sc2ccccc23)cn1 [Compound I, 2-(4-Methyl-[1,4]diazepan-1-yl)-5-oxo-5H-7-thia-1,11b-diaza-benzo[c]fluorene-6-carboxylic acid (5-methyl-pyrazin-2-ylmethyl)-amide]
[1]
  antiproliferative activity: antiproliferation activity
[2]
  activity in normal cells compared with cancer cell lines: significantly less active
[3]
  toxicity against BRCA1/2 deficient cells: specific toxicity
[4]
  therapeutic index of activity: wide therapeutic index
[5]; one patient of Group 10 (650 mg/m^2 IV, days 1, 8, 15 of 4-week cycle) with PALB2 mutation and BRCA2 mutation
  response to Compound I treatment: partial response (PR)
[5]; patients with BRCA2 mutation, dose greater than or equal to 150 mg/m^2, IV
  response to Compound I treatment: tumor shrinkage
